Legend:
[1] = biological target: RAC-alpha serine/threonine-protein kinase (Homo sapiens) (UniProt P31749); assay: Inhibition of recombinant human His-tagged full length AKT1 expressed in baculovirus expression system using Ser/Thr 06 as substrate at 0.1 uM incubated for 60 mins by Z'-Lyte assay relative to control
in vitro = conditions: dog, MDCK
Description: Efflux ratio of apparent permeability basolateral to apical over apical to basolateral side in MDCK cells at 10 uM incubated upto 180 mins by LC/MS-MS analysis

[2] = biological target: Protein kinase C beta type (Homo sapiens) (UniProt P05771); assay: Inhibition of recombinant human GST-tagged full length PKCbeta2 expressed in insect expression system using Ser/Thr 07 as substrate at 0.1 uM incubated for 60 mins by Z'-lyte assay relative to control
[3] = biological target: Mitogen-activated protein kinase 14 (Homo sapiens) (UniProt Q16539); assay: Inhibition of recombinant human GST-tagged full length p38 alpha expressed in Escherichia coli expression system using Ser/Thr 15 as substrate at 0.1 uM incubated for 60 mins by Z'-Lyte assay relative to control
[4] = biological target: T1, Mitogen-activated protein kinase kinase kinase 5 (Homo sapiens) (UniProt Q99683); assay: Inhibition of tracer 236 binding to recombinant human GST-tagged full length ASK1 expressed in baculovirus expression system at 0.1 uM incubated for 60 mins by Lanthascreen assay relative to control
T1 sequence (whole entry): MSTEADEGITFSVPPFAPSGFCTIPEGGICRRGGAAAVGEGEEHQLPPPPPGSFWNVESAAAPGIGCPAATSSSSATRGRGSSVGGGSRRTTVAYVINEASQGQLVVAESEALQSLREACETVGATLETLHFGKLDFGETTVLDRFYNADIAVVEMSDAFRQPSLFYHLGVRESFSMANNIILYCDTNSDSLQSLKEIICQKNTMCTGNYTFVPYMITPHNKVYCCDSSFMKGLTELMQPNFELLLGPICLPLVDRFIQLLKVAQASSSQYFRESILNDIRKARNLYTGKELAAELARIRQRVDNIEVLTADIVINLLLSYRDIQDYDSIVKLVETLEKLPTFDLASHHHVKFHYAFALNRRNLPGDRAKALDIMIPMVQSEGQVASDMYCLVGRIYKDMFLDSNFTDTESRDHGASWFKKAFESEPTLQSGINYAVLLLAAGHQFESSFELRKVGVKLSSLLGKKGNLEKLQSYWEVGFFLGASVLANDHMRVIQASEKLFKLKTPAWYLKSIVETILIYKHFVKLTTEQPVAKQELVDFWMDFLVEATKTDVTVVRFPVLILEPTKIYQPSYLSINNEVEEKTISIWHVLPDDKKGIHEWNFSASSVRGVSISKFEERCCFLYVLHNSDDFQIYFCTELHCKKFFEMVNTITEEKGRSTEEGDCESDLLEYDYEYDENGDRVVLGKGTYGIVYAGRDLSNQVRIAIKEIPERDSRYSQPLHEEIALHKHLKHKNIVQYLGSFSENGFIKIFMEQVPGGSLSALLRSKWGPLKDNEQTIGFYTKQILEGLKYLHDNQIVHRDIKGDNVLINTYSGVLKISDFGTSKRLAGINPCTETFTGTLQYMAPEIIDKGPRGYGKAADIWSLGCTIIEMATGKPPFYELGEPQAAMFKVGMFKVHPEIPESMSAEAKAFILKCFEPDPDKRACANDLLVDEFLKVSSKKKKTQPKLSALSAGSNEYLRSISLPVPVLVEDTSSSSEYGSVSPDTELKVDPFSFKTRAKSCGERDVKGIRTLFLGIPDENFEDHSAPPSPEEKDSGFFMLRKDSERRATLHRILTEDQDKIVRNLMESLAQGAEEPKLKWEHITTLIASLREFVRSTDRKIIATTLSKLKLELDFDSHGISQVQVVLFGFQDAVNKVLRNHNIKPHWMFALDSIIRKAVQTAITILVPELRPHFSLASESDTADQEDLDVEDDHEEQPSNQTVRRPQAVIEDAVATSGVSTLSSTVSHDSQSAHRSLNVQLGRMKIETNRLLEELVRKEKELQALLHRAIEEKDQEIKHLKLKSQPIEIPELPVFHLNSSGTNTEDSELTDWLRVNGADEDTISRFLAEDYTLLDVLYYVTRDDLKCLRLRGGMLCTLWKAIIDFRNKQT

[5] = biological target: Glycogen synthase kinase-3 beta (Homo sapiens) (UniProt P49841); assay: Inhibition of recombinant human N-terminal GST-tagged full length GSK3beta expressed in baculovirus expression system using Ser/Thr 09 as substrate at 0.1 uM incubated for 60 mins by Z'-Lyte assay relative to control
[6] = biological target: T2, Tyrosine-protein kinase JAK3 (Homo sapiens) (UniProt P52333); assay: Inhibition of recombinant human GST-tagged JAK3 (781 to 1124 residues) expressed in baculovirus expression system using Tyr 06 as substrate at 0.1 uM incubated for 60 mins by Z'-lyte assay relative to control
T2 sequence (whole entry): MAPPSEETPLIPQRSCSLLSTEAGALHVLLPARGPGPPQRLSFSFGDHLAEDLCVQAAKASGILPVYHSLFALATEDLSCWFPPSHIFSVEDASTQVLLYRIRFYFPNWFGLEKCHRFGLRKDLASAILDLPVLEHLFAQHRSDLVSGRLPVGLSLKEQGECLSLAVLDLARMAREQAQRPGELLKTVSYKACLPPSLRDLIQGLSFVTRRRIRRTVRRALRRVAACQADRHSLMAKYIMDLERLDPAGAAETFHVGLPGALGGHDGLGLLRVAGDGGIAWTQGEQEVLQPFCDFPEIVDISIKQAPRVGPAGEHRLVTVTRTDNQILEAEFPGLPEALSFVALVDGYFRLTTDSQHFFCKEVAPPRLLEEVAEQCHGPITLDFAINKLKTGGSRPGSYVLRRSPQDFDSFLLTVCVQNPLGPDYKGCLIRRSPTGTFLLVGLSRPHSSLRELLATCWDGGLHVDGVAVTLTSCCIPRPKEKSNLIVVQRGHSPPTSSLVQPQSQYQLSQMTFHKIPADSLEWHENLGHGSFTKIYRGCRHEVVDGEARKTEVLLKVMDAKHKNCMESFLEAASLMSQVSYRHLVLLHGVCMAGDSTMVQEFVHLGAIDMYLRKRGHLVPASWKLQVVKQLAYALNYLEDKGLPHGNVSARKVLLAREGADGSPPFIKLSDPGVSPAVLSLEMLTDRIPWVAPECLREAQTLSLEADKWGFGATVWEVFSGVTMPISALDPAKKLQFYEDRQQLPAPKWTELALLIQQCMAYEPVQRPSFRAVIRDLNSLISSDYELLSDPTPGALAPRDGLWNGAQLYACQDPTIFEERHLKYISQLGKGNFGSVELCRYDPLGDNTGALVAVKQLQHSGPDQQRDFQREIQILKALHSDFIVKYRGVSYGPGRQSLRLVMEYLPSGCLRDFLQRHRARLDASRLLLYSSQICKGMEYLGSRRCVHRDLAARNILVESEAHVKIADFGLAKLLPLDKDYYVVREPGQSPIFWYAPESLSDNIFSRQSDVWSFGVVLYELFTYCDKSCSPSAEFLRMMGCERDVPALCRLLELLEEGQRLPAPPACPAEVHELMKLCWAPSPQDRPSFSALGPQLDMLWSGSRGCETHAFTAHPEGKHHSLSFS

Sequence of RAC-alpha serine/threonine-protein kinase (Homo sapiens) (P31749 whole entry): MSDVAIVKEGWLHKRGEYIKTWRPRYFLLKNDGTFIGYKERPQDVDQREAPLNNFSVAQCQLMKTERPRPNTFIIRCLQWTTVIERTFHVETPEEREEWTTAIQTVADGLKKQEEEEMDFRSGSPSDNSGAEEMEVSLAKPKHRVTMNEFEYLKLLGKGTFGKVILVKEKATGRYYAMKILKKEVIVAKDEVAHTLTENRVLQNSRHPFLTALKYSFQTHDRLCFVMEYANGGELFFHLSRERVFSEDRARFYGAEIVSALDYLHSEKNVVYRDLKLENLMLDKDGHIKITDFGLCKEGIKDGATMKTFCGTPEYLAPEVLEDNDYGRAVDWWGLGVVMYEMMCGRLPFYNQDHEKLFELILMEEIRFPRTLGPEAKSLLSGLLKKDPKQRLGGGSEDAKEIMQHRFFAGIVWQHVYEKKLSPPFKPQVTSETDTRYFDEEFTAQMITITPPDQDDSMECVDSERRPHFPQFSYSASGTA
Sequence of Protein kinase C beta type (Homo sapiens) (P05771 2-671 limits assumed): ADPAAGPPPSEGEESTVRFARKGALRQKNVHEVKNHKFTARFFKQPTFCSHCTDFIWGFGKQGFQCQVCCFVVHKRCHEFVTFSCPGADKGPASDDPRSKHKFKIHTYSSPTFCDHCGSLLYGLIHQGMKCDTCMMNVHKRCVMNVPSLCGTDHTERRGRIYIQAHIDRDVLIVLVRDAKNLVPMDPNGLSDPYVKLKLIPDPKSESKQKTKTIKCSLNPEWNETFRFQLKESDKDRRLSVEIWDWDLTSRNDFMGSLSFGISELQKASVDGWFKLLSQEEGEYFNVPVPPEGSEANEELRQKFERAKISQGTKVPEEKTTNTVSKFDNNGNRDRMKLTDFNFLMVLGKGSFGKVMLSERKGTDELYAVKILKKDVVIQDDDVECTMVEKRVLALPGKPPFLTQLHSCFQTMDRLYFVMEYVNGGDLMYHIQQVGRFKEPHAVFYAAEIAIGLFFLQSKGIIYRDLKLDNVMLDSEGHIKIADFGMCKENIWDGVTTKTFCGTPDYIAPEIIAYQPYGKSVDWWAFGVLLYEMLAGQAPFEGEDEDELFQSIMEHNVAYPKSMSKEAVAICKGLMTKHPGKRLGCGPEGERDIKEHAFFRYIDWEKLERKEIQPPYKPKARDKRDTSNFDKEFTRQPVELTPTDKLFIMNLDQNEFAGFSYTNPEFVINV
Sequence of Mitogen-activated protein kinase 14 (Homo sapiens) (Q16539 whole entry): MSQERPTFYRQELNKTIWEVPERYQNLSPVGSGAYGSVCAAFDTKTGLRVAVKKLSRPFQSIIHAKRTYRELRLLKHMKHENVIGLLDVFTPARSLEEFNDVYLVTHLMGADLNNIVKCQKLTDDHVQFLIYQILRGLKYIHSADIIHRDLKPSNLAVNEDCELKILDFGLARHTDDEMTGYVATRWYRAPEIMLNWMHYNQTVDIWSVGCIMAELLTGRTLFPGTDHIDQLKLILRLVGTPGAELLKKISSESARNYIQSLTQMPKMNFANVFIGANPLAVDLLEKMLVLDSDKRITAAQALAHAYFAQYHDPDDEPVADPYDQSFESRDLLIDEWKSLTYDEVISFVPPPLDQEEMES
Sequence of Glycogen synthase kinase-3 beta (Homo sapiens) (P49841 whole entry, looked up, the tested form may be a part): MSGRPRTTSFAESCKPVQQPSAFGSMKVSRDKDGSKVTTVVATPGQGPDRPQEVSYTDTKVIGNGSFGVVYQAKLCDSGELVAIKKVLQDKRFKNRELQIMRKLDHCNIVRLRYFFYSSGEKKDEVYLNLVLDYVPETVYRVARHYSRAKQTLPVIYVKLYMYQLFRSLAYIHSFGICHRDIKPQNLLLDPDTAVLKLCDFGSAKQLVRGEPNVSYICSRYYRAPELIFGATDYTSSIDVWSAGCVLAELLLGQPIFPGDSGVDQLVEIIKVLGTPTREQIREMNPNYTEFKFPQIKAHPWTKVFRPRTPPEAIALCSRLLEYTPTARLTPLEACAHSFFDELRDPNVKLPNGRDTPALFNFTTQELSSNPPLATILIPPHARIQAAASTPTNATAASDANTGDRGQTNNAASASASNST

## O=C(Nc1c[nH]nc1-c1cc(Cl)ccc1OC(F)F)c1cnn2cccnc12
[1]
  inhibition: 1%
In vitro
  efflux ratio at 3 h, 10 µM: 1.1
[2]
  inhibition: 21%
[3]
  inhibition: -4%
[4]
  inhibition: 4%
[5]
  inhibition: 7%
[6]
  inhibition: 95%

## O=C(Nc1c[nH]nc1-c1cc2ccccc2cc1OC(F)F)c1cnn2cccnc12
[1]
  inhibition: -5%
In vitro
  efflux ratio at 3 h, 10 µM: 1.2
[2]
  inhibition: 17%
[3]
  inhibition: 2%
[4]
  inhibition: -2%
[5]
  inhibition: 7%
[6]
  inhibition: 94%

## Cn1cc(NC(=O)c2cnn3cccnc23)c(-c2cc(Cl)ccc2OC(F)F)n1
[1]
  inhibition: -6%
In vitro
  efflux ratio at 3 h, 10 µM: 0.55
[2]
  inhibition: 12%
[3]
  inhibition: 7%
[4]
  inhibition: 2%
[5]
  inhibition: -3%
[6]
  inhibition: 98%
